Results from patent publication US20050080096A1, “Condensed heterocyclic compounds” (priority 2002, published 2005).

target: recombinant human PARP (Homo sapiens, UniProt P09874); assay: PARP Inhibitory Activity (In vitro assay); format: biochemical; details: 32P-NAD, activated DNA, 15 minutes at room temperature, pH8.0
Method: The recombinant human PARP (5.3 mg protein/ml) were incubated with a test compound in a 100 μl reaction buffer containing the indicated concentration of 1 mCi/ml ^32P-NAD, 50 mM Tris-HCl, 25 mM MgCl2, 1 mM DTT (dithiothreitol), 0.05 mM NAD (nicotinamido adenine dinucleotide), lmg/mi activated DNA, pH8.0. Incubation was for 15 minutes at a room temperature and the reaction was stopped by the addition of 200 μl of ice-cold 20% trichloroacetic acid followed by rapid filtration through GF/B filters. The filters were treated with scintillation fluid and acid-insoluble counts were measured for quantification of unit activity.
PARP Inhibitory Activity (%)=
[1-(enzyme activity with test compound)/(enzyme activity with vehicle)]×100

recombinant human PARP, sequence (P09874 whole entry): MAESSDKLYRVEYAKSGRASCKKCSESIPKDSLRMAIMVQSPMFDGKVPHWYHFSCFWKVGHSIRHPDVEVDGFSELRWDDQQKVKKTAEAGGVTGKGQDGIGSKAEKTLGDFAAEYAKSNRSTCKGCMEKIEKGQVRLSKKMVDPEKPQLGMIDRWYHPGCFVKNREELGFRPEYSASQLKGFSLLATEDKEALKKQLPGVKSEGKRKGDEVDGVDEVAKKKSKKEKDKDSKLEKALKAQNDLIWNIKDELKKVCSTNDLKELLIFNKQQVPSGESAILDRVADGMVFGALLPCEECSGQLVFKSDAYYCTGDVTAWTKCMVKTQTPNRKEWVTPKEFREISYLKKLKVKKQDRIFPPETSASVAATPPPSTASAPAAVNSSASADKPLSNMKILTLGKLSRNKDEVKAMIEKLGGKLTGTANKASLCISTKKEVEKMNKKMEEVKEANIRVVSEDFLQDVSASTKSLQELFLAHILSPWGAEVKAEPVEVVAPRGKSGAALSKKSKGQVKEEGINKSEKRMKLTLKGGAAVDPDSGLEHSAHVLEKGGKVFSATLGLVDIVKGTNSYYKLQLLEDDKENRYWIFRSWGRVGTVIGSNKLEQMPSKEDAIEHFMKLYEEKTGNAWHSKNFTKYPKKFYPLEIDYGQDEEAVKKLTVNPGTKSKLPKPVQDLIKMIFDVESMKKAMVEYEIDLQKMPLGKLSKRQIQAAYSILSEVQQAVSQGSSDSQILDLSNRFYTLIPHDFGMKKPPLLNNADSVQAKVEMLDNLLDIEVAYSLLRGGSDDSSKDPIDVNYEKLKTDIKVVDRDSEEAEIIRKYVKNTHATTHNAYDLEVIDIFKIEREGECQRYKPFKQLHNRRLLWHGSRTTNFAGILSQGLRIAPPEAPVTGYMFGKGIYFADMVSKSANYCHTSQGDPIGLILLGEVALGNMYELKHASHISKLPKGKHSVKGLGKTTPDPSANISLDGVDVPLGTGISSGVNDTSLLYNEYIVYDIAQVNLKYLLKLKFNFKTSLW

| IC50 [nM] | SMILES |
| --- | --- |
| < 500 | Cn1c2c(c3ccccc31)CCN(CCCCc1n[nH]c(=O)c3ccccc13)C2 [Compound D] |
| < 500 | O=c1[nH]c(CCCN2CC=C(c3ccccc3)CC2)nc2c1CCCC2 [Compound A, 2-[3-(4-Phenyl-3,6-dihydro-1(2H)-pyridyl)propyl]-5,6,7,8-tetrahydro-4(3H)-quinazolinone] |
| < 500 | O=c1[nH]c(CCCN2CC=C(c3ccccc3)CC2)nc2c1CSCC2 [Compound B, 2-[3-(4-Phenyl-3,6-dihydro-1(2H)-pyridyl)propyl]-3,5,7,8-tetrahydro4H-thiopyrano[4,3-d]pyrimidin-4-one] |

| SMILES | IC50 [nM] |
| --- | --- |
| O=c1[nH]nc(CCCCN2CC=C(c3ccccc3)CC2)c2ccccc12 [Compound C, 4-[4-(4-Phenyl-3,6dihydro-1(2H)-pyridyl)butyl]-1(2H)-phthalazinone] | < 500 |
